Measured values published in patent publication US20130052281A1, “NOVEL COMPOUNDS” (Takeda Pharmaceutical Company Limited, priority 2011, published 2013).

Biological target: Human DAAO enzyme (Homo sapiens, UniProt P14920)
Assay: In Vitro DAAO Enzyme Assay (Amplex Red detection of H2O2 from D-Serine)
Type: biochemical
Conditions: inhibition of DAAO activity in the presence of 10 mM D-Serine; 60 minutes at 25° C.; ten point dose-response
Description: The Km of D-Serine was measured for each enzyme batch to maintain consistency; this Km was used in subsequent assays.
On the day of the assay compounds were serially diluted in DMSO before being diluted 1:20 with assay buffer (20 mM Tris ph 7.4). […] Finally 5 μl ‘Amplex’ red reagent (Invitrogen) was added to all wells as per manufacturer's protocol. The plate was incubated for 60 minutes in the dark at 25° C. and the fluorescence in each well was measured in the Envision plate reader.
Concentration response curves were generated using the average of duplicate wells for each data point and analyzed using non-linear regression and four parameter curve fit.

Chain of Human DAAO enzyme (P14920 whole entry): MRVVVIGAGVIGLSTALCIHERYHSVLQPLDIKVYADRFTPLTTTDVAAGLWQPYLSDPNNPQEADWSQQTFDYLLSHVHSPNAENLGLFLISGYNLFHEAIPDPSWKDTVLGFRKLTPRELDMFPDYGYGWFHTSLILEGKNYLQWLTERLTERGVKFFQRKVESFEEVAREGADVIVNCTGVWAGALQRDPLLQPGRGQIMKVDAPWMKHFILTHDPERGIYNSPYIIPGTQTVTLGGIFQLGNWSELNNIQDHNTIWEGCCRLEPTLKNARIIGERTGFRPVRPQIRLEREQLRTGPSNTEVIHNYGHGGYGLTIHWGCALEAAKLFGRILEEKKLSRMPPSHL

IC50 [nM]	SMILES
22	O=c1[nH]nc(CCc2cccc(OC(F)(F)F)c2)cc1O [Example 10, 4-Hydroxy-6-{2-[3-(trifluoromethoxy)phenyl]ethyl}pyridazin-3(2H)-one]
23	O=c1[nH]nc(CCc2cncc(C(F)(F)F)c2)cc1O [Example 12, 4-Hydroxy-6-{2-[5-(trifluoromethyl)pyridin-3-yl]ethyl}pyridazin-3(2H)-one]
